Source: article PMC11571207, “Stereorandomized Oncocins with Preserved Ribosome Binding and Antibacterial Activity” (Journal of Medicinal Chemistry, 2024)
≈ marks a conversion by molar mass, not a printed value. Non-standard residues stand in square brackets, D forms with d. Residues, ends and D or L forms follow the SMILES beside them. No end group written: not given here.

What was measured:
A. baumannii ATCC19606 = assay: microbe, parasite or virus in culture; details: for MIC A. baumannii, 12.5% MHB / MIC A. baumannii, Full MHB: A. baumannii ATCC19606, 16–20 h at 37 °C; for MIC A. baumannii, 12.5% MHB: 12.5% Müller–Hinton medium; for MIC A. baumannii, Full MHB: full Müller–Hinton medium; for MIC A. baumannii ATCC19606: supplement CSV
Excerpt: (§1) We tested antibacterial effects against the Gram-negative bacteria Escherichia coli, Klebsiella pneumoniae, Pseudomonas aeruginosa, and Acinetobacter baumannii and the Gram-positive methicillin-resistant Staphylococcus aureus (MRSA).
(§2) Bacterial growth assay (Figure S1), transmission electron microscopy (Figure S6), serum stability assay (Figure S7), circular dichroism spectral recording (Figures S8 and S9), antimicrobial and hemolysis activity assays (MIC and MHC), and vesicle leakage assay were carried out as described in earlier publications.[43],[44]
(§3) Minimum inhibitory concentration assay
(§4) Antimicrobial activity was assayed against P. aeruginosa PAO1, K. pneumoniae NCTC418, E. coli W3110, A. baumannii ATCC 19606, methicillin-resistant S. aureus COL (MRSA), and for selected peptides on P. aeruginosa PA14 and the polymyxin-B-resistant derivative PA14 2P4, as well as the clinical isolates ZEM-1A and ZEM9A, K. pneumoniae OXA-48, S. aureus Newman, Enterobacter cloacae and Burkholderia cenocepacia. The minimal inhibitory concentration (MIC) was determined by using broth microdilution method. A colo ny of bacteria was picked and grown in Luria-Bertani (LB) medium overnight at 37°C. For E. coli BW25113 sbmA::kan the medium was supplemented with 25 mg/L of kanamycin. The next day, the culture was then regrown in LB medium to log phase (OD600 = 0.6 to 0.8), which lasted approximately 4 h, and diluted to an OD600 of 0.022 in the desired medium. Stock solutions of 1 mg/mL of the samples were prepared in sterilized milliQ water and diluted to the beginning concentration of 64 μg/mL in 300 μL Mueller Hinton (MH)-medium. The diluted samples were added to first well of 96-well microtiter plate (TPP, untreated, Faust Laborbedarf, AG, Schaffhausen) and diluted serially by ½. Finally, 4 μL of the bacterial suspension was inoculated into the sample solutions (150 μL/well) with a final inoculation of about 5∙10^5 CFU/mL. The plates were then incubated at 37°C for 15-18h. For each assay, sterility (broth only) and growth control (broth with bacterial inoculum, without antibiotics) were checked with two columns in the plate. The next day, 15 μL of 3-(4,5-dimethylthiazol-2-yl)-2,5-diphenyltetrazolium bromide (MTT) was added to each well of the plate, such a way that MIC was defined as the lowest concentration of the peptide that inhibited visible growth of the tested

E. coli W3110 = assay: microbe, parasite or virus in culture; details: for MIC E. coli, 12.5% MHB / MIC E. coli, Full MHB: E. coli W3110, 16–20 h at 37 °C, broth microdilution; for MIC E. coli, 12.5% MHB: 12.5% Müller–Hinton medium; for MIC E. coli, Full MHB: full Müller–Hinton medium; for MIC E. coli W3110: supplement CSV
Excerpt: as §1, §2, §3, §4

K. pneumoniae NCTC 418 = assay: microbe, parasite or virus in culture; details: for MIC K. pneumoniae, 12.5% MHB / MIC K. pneumoniae, Full MHB: K. pneumoniae NCTC 418, 16–20 h at 37 °C; for MIC K. pneumoniae, 12.5% MHB: 12.5% Müller–Hinton medium; for MIC K. pneumoniae, Full MHB: full Müller–Hinton medium; for MIC K. pneumoniae NCTC418: supplement CSV
Excerpt: as §1, §2, §3, §4

P. aeruginosa PAO1 = assay: microbe, parasite or virus in culture; details: for MIC P. aeruginosa, 12.5% MHB / MIC P. aeruginosa, Full MHB: P. aeruginosa PAO1, 16–20 h at 37 °C; for MIC P. aeruginosa, 12.5% MHB: 12.5% Müller–Hinton medium; for MIC P. aeruginosa, Full MHB: full Müller–Hinton medium; for MIC P. aeruginosa PAO1: supplement CSV
Excerpt: as §1, §2, §3, §4

S. aureus COL (MRSA) = assay: microbe, parasite or virus in culture; details: for MIC S. aureus, 12.5% MHB / MIC S. aureus, Full MHB: S. aureus COL (MRSA), 16–20 h at 37 °C; for MIC S. aureus, 12.5% MHB: 12.5% Müller–Hinton medium; for MIC S. aureus, Full MHB: full Müller–Hinton medium; for MIC S. aureus COL (MRSA): supplement CSV
Excerpt: as §1, §2, §3, §4

human red blood cells = assay: Hemolysis assay, minimum hemolytic concentration; details: for Haemolysis on hRBC, MHC: 2.5% human red blood cells (final) in 10 mM phosphate, 150 mM NaCl, pH 7.4, 25 °C, 4 h, visual inspection; for MHC human red blood cells: supplement CSV

## CC[C@@H](C)[C@@H](NC(=O)[C@@H](CCCNC(=N)N)NC(=O)[C@@H](CCCNC(=N)N)NC(=O)[C@H]1CCCN1C(=O)[C@H]1CCCN1C(=O)[C@H](CCCNC(=N)N)NC(=O)[C@@H]1CCCN1C(=O)[C@H](CCCNC(=N)N)NC(=O)[C@@H]1CCCN1C(=O)[C@H](CC(C)C)NC(=O)[C@H](Cc1ccc(O)cc1)NC(=O)[C@@H]1CCCN1C(=O)[C@@H]1CCCN1C(=O)[C@H](CCCCN)NC(=O)[C@H](CC(=O)O)NC(=O)[C@@H](N)C(C)C)C(=O)N[C@H](Cc1ccc(O)cc1)C(=O)N[C@H](CC(N)=O)C(=O)N[C@H](CCCNC(=N)N)C(N)=O [D8Cterm-Onc] (H-VDKPPYLPRPR[dP][dP][dR][dR][dI][dY][dN][dR]-NH2)
A. baumannii ATCC19606
  MIC A. baumannii, 12.5% MHB: 8 µg/mL (≈ 3.35 µM)
  MIC A. baumannii, Full MHB: 64 µg/mL (≈ 26.8 µM)
A. baumannii ATCC19606; 12.5% MH pH 7.4
  MIC A. baumannii ATCC19606: 8 µg/mL (≈ 3.35 µM)
A. baumannii ATCC19606; full MH pH 7.4
  MIC A. baumannii ATCC19606: 64 µg/mL (≈ 26.8 µM)
E. coli W3110
  MIC E. coli, 12.5% MHB: 1 µg/mL (≈ 0.418 µM)
  MIC E. coli, Full MHB: 16 µg/mL (≈ 6.69 µM)
E. coli W3110; 12.5% MH pH 7.4
  MIC E. coli W3110: 1 µg/mL (≈ 0.418 µM)
E. coli W3110; full MH pH 7.4
  MIC E. coli W3110: 16 µg/mL (≈ 6.69 µM)
K. pneumoniae NCTC 418
  MIC K. pneumoniae, 12.5% MHB: 2 µg/mL (≈ 0.837 µM)
  MIC K. pneumoniae, Full MHB: 4 µg/mL (≈ 1.67 µM)
K. pneumoniae NCTC 418; 12.5% MH pH 7.4
  MIC K. pneumoniae NCTC418: 2 µg/mL (≈ 0.837 µM)
K. pneumoniae NCTC 418; full MH pH 7.4
  MIC K. pneumoniae NCTC418: 4 µg/mL (≈ 1.67 µM)
P. aeruginosa PAO1
  MIC P. aeruginosa, 12.5% MHB: 4 µg/mL (≈ 1.67 µM)
  MIC P. aeruginosa, Full MHB: > 64 µg/mL
P. aeruginosa PAO1; 12.5% MH pH 7.4
  MIC P. aeruginosa PAO1: 4 µg/mL (≈ 1.67 µM)
P. aeruginosa PAO1; full MH pH 7.4
  MIC P. aeruginosa PAO1: >64 µg/mL
S. aureus COL (MRSA)
  MIC S. aureus, 12.5% MHB: >64 / 64 μg/mL
  MIC S. aureus, Full MHB: >64 / 64 μg/mL
S. aureus COL (MRSA); 12.5% MH pH 7.4
  MIC S. aureus COL (MRSA): 64 µg/mL (≈ 26.8 µM)
S. aureus COL (MRSA); full MH pH 7.4
  MIC S. aureus COL (MRSA): >64 µg/mL
Human red blood cells
  Haemolysis on hRBC, MHC: >1000 µg/mL
  MHC human red blood cells: >1000 µg/mL

## CC[C@H](C)[C@H](NC(=O)[C@H](CCCNC(=N)N)NC(=O)[C@H](CCCNC(=N)N)NC(=O)[C@@H]1CCCN1C(=O)[C@@H]1CCCN1C(=O)[C@H](CCCNC(=N)N)NC(=O)[C@@H]1CCCN1C(=O)[C@H](CCCNC(=N)N)NC(=O)[C@@H]1CCCN1C(=O)[C@H](CC(C)C)NC(=O)[C@@H](Cc1ccc(O)cc1)NC(=O)[C@@H]1CCCN1C(=O)[C@@H]1CCCN1C(=O)[C@H](CCCCN)NC(=O)[C@H](CC(=O)O)NC(=O)[C@@H](N)C(C)C)C(=O)N[C@@H](Cc1ccc(O)cc1)C(=O)N[C@@H](CC(N)=O)C(=O)N[C@@H](CCCNC(=N)N)C(N)=O [DY6-Onc] (H-VDKPP[dY]LPRPRPPRRIYNR-NH2)
A. baumannii ATCC19606
  MIC A. baumannii, 12.5% MHB: 16 µg/mL (≈ 6.69 µM)
  MIC A. baumannii, Full MHB: > 64 µg/mL
A. baumannii ATCC19606; 12.5% MH pH 7.4
  MIC A. baumannii ATCC19606: 16 µg/mL (≈ 6.69 µM)
A. baumannii ATCC19606; full MH pH 7.4
  MIC A. baumannii ATCC19606: >64 µg/mL
E. coli W3110
  MIC E. coli, 12.5% MHB: 4 µg/mL (≈ 1.67 µM)
  MIC E. coli, Full MHB: 16 µg/mL (≈ 6.69 µM)
E. coli W3110; 12.5% MH pH 7.4
  MIC E. coli W3110: 4 µg/mL (≈ 1.67 µM)
E. coli W3110; full MH pH 7.4
  MIC E. coli W3110: 16 µg/mL (≈ 6.69 µM)
K. pneumoniae NCTC 418
  MIC K. pneumoniae, 12.5% MHB: 4 µg/mL (≈ 1.67 µM)
  MIC K. pneumoniae, Full MHB: 8 µg/mL (≈ 3.35 µM)
K. pneumoniae NCTC 418; 12.5% MH pH 7.4
  MIC K. pneumoniae NCTC418: 4 µg/mL (≈ 1.67 µM)
K. pneumoniae NCTC 418; full MH pH 7.4
  MIC K. pneumoniae NCTC418: 8 µg/mL (≈ 3.35 µM)
P. aeruginosa PAO1
  MIC P. aeruginosa, 12.5% MHB: 16 µg/mL (≈ 6.69 µM)
  MIC P. aeruginosa, Full MHB: > 64 µg/mL
P. aeruginosa PAO1; 12.5% MH pH 7.4
  MIC P. aeruginosa PAO1: 16 µg/mL (≈ 6.69 µM)
P. aeruginosa PAO1; full MH pH 7.4
  MIC P. aeruginosa PAO1: >64 µg/mL
S. aureus COL (MRSA)
  MIC S. aureus, 12.5% MHB: >64 / 64 μg/mL
  MIC S. aureus, Full MHB: >64 / 64 μg/mL
S. aureus COL (MRSA); 12.5% MH pH 7.4
  MIC S. aureus COL (MRSA): 64 µg/mL (≈ 26.8 µM)
S. aureus COL (MRSA); full MH pH 7.4
  MIC S. aureus COL (MRSA): >64 µg/mL
Human red blood cells
  Haemolysis on hRBC, MHC: >1000 µg/mL
  MHC human red blood cells: >1000 µg/mL

## VDKPPYLPRPRPPRRIYNR [sr12Cterm-Onc] (VDKPPYLPRPRPPRRIYNR-NH2; also: residues 8-19 stereorandomized (1:1 L/D mixture))
A. baumannii ATCC19606
  MIC A. baumannii, 12.5% MHB: 8 µg/mL
  MIC A. baumannii, Full MHB: 32 µg/mL
A. baumannii ATCC19606; 12.5% MH pH 7.4
  MIC A. baumannii ATCC19606: 8 µg/mL
A. baumannii ATCC19606; full MH pH 7.4
  MIC A. baumannii ATCC19606: 32 µg/mL
E. coli W3110
  MIC E. coli, 12.5% MHB: 8 µg/mL
  MIC E. coli, Full MHB: 16 µg/mL
E. coli W3110; 12.5% MH pH 7.4
  MIC E. coli W3110: 8 µg/mL
E. coli W3110; full MH pH 7.4
  MIC E. coli W3110: 16 µg/mL
K. pneumoniae NCTC 418
  MIC K. pneumoniae, 12.5% MHB: 8 µg/mL
  MIC K. pneumoniae, Full MHB: 16 µg/mL
K. pneumoniae NCTC 418; 12.5% MH pH 7.4
  MIC K. pneumoniae NCTC418: 8 µg/mL
K. pneumoniae NCTC 418; full MH pH 7.4
  MIC K. pneumoniae NCTC418: 16 µg/mL
P. aeruginosa PAO1
  MIC P. aeruginosa, 12.5% MHB: 8 µg/mL
  MIC P. aeruginosa, Full MHB: > 64 µg/mL
P. aeruginosa PAO1; 12.5% MH pH 7.4
  MIC P. aeruginosa PAO1: 8 µg/mL
P. aeruginosa PAO1; full MH pH 7.4
  MIC P. aeruginosa PAO1: >64 µg/mL
S. aureus COL (MRSA)
  MIC S. aureus, 12.5% MHB: >64 / 64 μg/mL
  MIC S. aureus, Full MHB: >64 / 64 μg/mL
S. aureus COL (MRSA); 12.5% MH pH 7.4
  MIC S. aureus COL (MRSA): 64 µg/mL
S. aureus COL (MRSA); full MH pH 7.4
  MIC S. aureus COL (MRSA): >64 µg/mL
Human red blood cells
  Haemolysis on hRBC, MHC: >1000 µg/mL
  MHC human red blood cells: >1000 µg/mL
